pIC50: −log10 of the molar value. Bounds are passed on as bounds.

Usually pIC50 stands for the negative decadic logarithm of the IC50, by convention in mol/L.

For the assay, the target named is SARS-CoV-2 3CL-protease (Severe acute respiratory syndrome coronavirus 2, UniProt P0DTD1). Briefly: SARS-CoV-2 3C-Like (3CL) Protease Fluorescence Assay (FRET). In kind it is biochemical. The settings on record: SARS-CoV-2 3CL-protease 10 nM, 30 min preincubation at RT, substrate 40 μM.
`CC(C)C[C@@H](C(=O)N1C[C@]2(C[C@H]1C#N)C(=O)Nc1ccccc12)N(C)C(=O)c1cc(F)cc(Cl)c1` [Example 173] showed a negative logarithm of the IC50 (pIC50) above 7.00.

`CC(C)C[C@@H](C(=O)N1C[C@]2(C[C@H]1C#N)C(=O)Nc1ccccc12)N(C)C(=O)c1cccc(N)n1` [Example 199] gave a pIC50 of 6.00 to 7.00.

`CC(C)C[C@@H](C(=O)N1C[C@]2(C[C@H]1C#N)C(=O)Nc1ccccc12)N(C)C(=O)c1cn(-c2ccccc2)nn1` [Example 338] gave a pIC50 above 7.00.

In turn, `CC(C)C[C@@H](C(=O)N1C[C@]2(C[C@H]1C#N)C(=O)Nc1ccccc12)N(C)C(=O)c1cccc(Cl)c1` [Example 167] gave a pIC50 above 7.00.

`CC(C)C[C@@H](C(=O)N1C[C@]2(C[C@H]1C#N)C(=O)Nc1ccccc12)N(C)C(=O)/C=C/c1ccccc1` [Example 228] gave a pIC50 above 7.00.

`C=CC(=O)N(C)[C@@H](CC(C)(C)F)C(=O)N1C[C@]2(C[C@H]1C#N)C(=O)Nc1ccccc12` [Example 535, N—((S)-1-((3R,5′S)-5′-cyano-2-oxospiro[indoline-3,3′-pyrrolidin]-1′-yl)-4-fluoro-4-methyl-1-oxopentan-2-yl)-N-methylacrylamide] showed a pIC50 of 6.00 to 7.00.

For the molecule `CC(C)C[C@@H](C(=O)N1C[C@]2(C[C@H]1C#N)C(=O)Nc1ccccc12)N(C)C(=O)c1cc(Cl)cc(C#N)c1` [Example 187], the pIC50 is above 7.00.

With `CN(C(=O)c1cc2c(OC3CC3)cccc2[nH]1)[C@@H](CC(C)(C)C)C(=O)N1C[C@]2(C[C@H]1C#N)C(=O)Nc1ccccc12` [Example 375], the pIC50 was above 7.00.

Take `CC(C)C[C@@H](C(=O)N1C[C@]2(C[C@H]1C#N)C(=O)Nc1ccccc12)N(C)C(=O)c1ccc2ccccc2c1` [Example 219]: the pIC50 is 6.00 to 7.00.

Molecule `CC(C)C[C@@H](C(=O)N1C[C@]2(C[C@H]1C#N)C(=O)Nc1ccccc12)N(C)C(=O)c1cc2cccnc2[nH]1` [Example 464] had a negative logarithm of the IC50 (pIC50) above 7.00.

Consider `CN(C(=O)C(F)(F)c1ccncc1)[C@@H](CC(C)(C)F)C(=O)N1C[C@]2(C[C@H]1C#N)C(=O)Nc1ccc(Cl)cc12` [Example 480], for which the pIC50 is above 7.00.

In the case of `CC(C)C[C@@H](C(=O)N1C[C@]2(C[C@H]1C#N)C(=O)Nc1ccc(-c3ccoc3)cc12)N(C)C(=O)c1cc2c(F)cc(F)cc2[nH]1` [Example 512], the negative-log IC50 (pIC50) was above 7.00.

Take `CC(C)C[C@@H](C(=O)N1C[C@]2(C[C@H]1C#N)C(=O)Nc1ccccc12)N(C)C(=O)c1ccc(Cl)cc1` [Example 163]: the pIC50 was 6.00 to 7.00.

Take `CC(C)C[C@@H](C(=O)N1C[C@]2(C[C@H]1C#N)C(=O)Nc1ccccc12)N(C)C(=O)c1cc(F)c2nn(C)cc2c1` [Example 309]: the pIC50 was above 7.00.

`Cc1ccc2cc(C(=O)N(C)[C@@H](CC(C)(C)F)C(=O)N3C[C@]4(C[C@H]3C#N)C(=O)Nc3ccc(Cl)cc34)[nH]c2n1` [Example 471] gave a pIC50 above 7.00.

As to `CN(C(=O)[C@H](O)C(C)(C)C)[C@@H](CC1CC1)C(=O)N1C[C@]2(C[C@H]1C#N)C(=O)Nc1ccccc12` [Example 417], the pIC50 is above 7.00.

As for `Cc1cccc(C)c1NC(=O)N[C@@H](CC(C)(C)C)C(=O)N1C[C@]2(C[C@H]1C#N)C(=O)Nc1ccccc12` [Example 438], the negative logarithm of the IC50 (pIC50) was 6.00 to 7.00.

`CC(C)C[C@@H](C(=O)N1C[C@]2(C[C@H]1C#N)C(=O)Nc1ccccc12)N(C)C(=O)c1ccc2cnccc2c1` [Example 216] showed a negative-log IC50 (pIC50) above 7.00.

As to `CC(C)(C)C[C@H](NC(=O)c1cnn(-c2ccc(C(F)(F)F)cc2)c1)C(=O)N1C[C@]2(C[C@H]1C#N)C(=O)Nc1ccccc12` [Example 145], the pIC50 is above 7.00.

Molecule `CN(C(=O)CCN1CCCCC1)[C@@H](CC(C)(C)F)C(=O)N1C[C@]2(C[C@H]1C#N)C(=O)Nc1ccccc12` [Example 542] showed a pIC50 above 7.00.

`CN(C(=O)C(F)(F)F)[C@@H](CC(C)(C)C)C(=O)N1C[C@]2(C[C@H]1C#N)C(=O)Nc1ccccc12` [Example 374] showed a pIC50 of 6.00 to 7.00.

`CC(C)C[C@H](NC(=O)c1cc2c(F)cccc2[nH]1)C(=O)N1C[C@]2(C[C@H]1C#N)C(=O)Nc1cccc(Cl)c12` [Example 528] gave a negative-log IC50 (pIC50) of 6.00 to 7.00.

`Cc1cccc2c1NC(=O)[C@]21C[C@@H](C#N)N(C(=O)[C@H](CC(C)C)NC(=O)c2cc3c(F)cccc3[nH]2)C1` [Example 534] showed a pIC50 above 7.00.

Consider `COc1ccc(C(=O)N(C)[C@@H](CC(C)C)C(=O)N2C[C@]3(C[C@H]2C#N)C(=O)Nc2ccccc23)cc1C(F)(F)F` [Example 181], for which the negative-log IC50 (pIC50) is above 7.00.

Consider `CC(C)(C)C[C@H](NC(=O)c1ccc2ncc(C3CC3)cc2c1)C(=O)N1C[C@]2(C[C@H]1C#N)C(=O)Nc1ccccc12` [Example 136], for which the negative logarithm of the IC50 (pIC50) is above 7.00.

For `CC(C)C[C@@H](C(=O)N1C[C@]2(C[C@H]1C#N)C(=O)Nc1ccccc12)N(C(=O)OCc1ccccc1)C(C)C` [Example 160], the pIC50 was below 6.00.

For `CC(C)C[C@@H](C(=O)N1C[C@]2(C[C@H]1C#N)C(=O)Nc1ccccc12)N(C)C(=O)c1nnc(-c2ccc(F)cc2)o1` [Example 355], the negative-log IC50 (pIC50) is above 7.00.

Turning to `CC(C)C[C@@H](C(=O)N1C[C@]2(C[C@H]1C#N)C(=O)Nc1ccccc12)N(C)C(=O)c1c(F)ccc2ccncc12` [Example 299], the pIC50 was above 7.00.

`CN(C(=O)c1cn(CC(F)(F)F)nn1)[C@@H](Cc1ccccc1)C(=O)N1C[C@]2(C[C@H]1C#N)C(=O)Nc1ccccc12` [Example 362] showed a pIC50 above 7.00.

Regarding `CC(C)C[C@@H](C(=O)N1C[C@]2(C[C@H]1C#N)C(=O)Nc1ccccc12)N(C)C(=O)c1ccc2cnn(C)c2c1` [Example 224], the negative-log IC50 (pIC50) is above 7.00.

On to `CC(C)C[C@@H](C(=O)N1C[C@]2(C[C@H]1C#N)C(=O)Nc1ccccc12)N(C)C(=O)c1cc(F)c2nn(C3CC3)cc2c1` [Example 311], for which the pIC50 was 6.00 to 7.00.

As for `CC(C)C[C@@H](C(=O)N1C[C@]2(C[C@H]1C#N)C(=O)Nc1ccc(Br)cc12)N(C)C(=O)OCc1ccccc1` [Example 517, benzyl ((S)-1-((3R,5′S)-5-bromo-5′-cyano-2-oxospiro[indoline-3,3′-pyrrolidin]-1′-yl)-4-methyl-1-oxopentan-2-yl)(methyl)carbamate], the negative-log IC50 (pIC50) is above 7.00.

`CC(C)C[C@@H](C(=O)N1C[C@]2(C[C@H]1C#N)C(=O)Nc1ccccc12)N(C)C(=O)c1ccc2c(=O)[nH]ccc2c1` [Example 276] gave a negative-log IC50 (pIC50) above 7.00.

On to `CC(C)C[C@H](NC(=O)c1cc2c(F)cccc2[nH]1)C(=O)N1C[C@]2(C[C@H]1C#N)C(=O)Nc1c(Cl)cccc12` [Example 533], for which the pIC50 is above 7.00.

`CC(C)C[C@@H](C(=O)N1C[C@]2(C[C@H]1C#N)C(=O)Nc1ccccc12)N(C)C(=O)c1cc(F)ccn1` [Example 197] showed a pIC50 of 6.00 to 7.00.

As to `Cc1ccc2cc(C(=O)N(C)[C@@H](CC(C)(C)F)C(=O)N3C[C@]4(C[C@H]3C#N)C(=O)Nc3ccccc34)[nH]c2n1` [Example 467], the pIC50 is above 7.00.

In the case of `CC(C)C[C@@H](C(=O)N1C[C@]2(C[C@H]1C#N)C(=O)Nc1ccccc12)N(C)C(=O)c1cn(-c2cccc(Cl)c2)nn1` [Example 286], the pIC50 is above 7.00.

For the molecule `CC(C)C[C@@H](C(=O)N1C[C@]2(C[C@H]1C#N)C(=O)Nc1ccccc12)N(C)C(=O)N1CC[C@H](O)C1` [Example 335], the negative-log IC50 (pIC50) was 6.00 to 7.00.

Regarding `Cc1ccc2cc(C(=O)N(C)[C@@H](CC(C)C)C(=O)N3C[C@]4(C[C@H]3C#N)C(=O)Nc3ccc(Cl)cc34)[nH]c2n1` [Example 469], the pIC50 was above 7.00.

`CC(C)C[C@@H](C(=O)N1C[C@]2(C[C@H]1C#N)C(=O)Nc1ccccc12)N(C)C(=O)c1c(Cl)cc(Cl)cc1Cl` [Example 185] showed a pIC50 above 7.00.

The molecule `CN(C(=O)C(F)(F)c1cccnc1)[C@@H](CC(C)(C)F)C(=O)N1C[C@]2(C[C@H]1C#N)C(=O)Nc1ccc(Cl)cc12` [Example 482] showed a pIC50 above 7.00.

As for `CCC[C@@H](C(=O)N1C[C@]2(C[C@H]1C#N)C(=O)Nc1ccccc12)N(C)C(=O)c1cc2c(F)cc(F)cc2[nH]1` [Example 386], the negative logarithm of the IC50 (pIC50) is above 7.00.

`CN(C(=O)c1cc2c(F)cc(F)cc2[nH]1)[C@@H](CC(C)(C)O)C(=O)N1C[C@]2(C[C@H]1C#N)C(=O)Nc1ccccc12` [Example 443] had a negative logarithm of the IC50 (pIC50) of 6.00 to 7.00.

Turning to `CC(C)C[C@@H](C(=O)N1C[C@]2(C[C@H]1C#N)C(=O)Nc1ccccc12)N(C)C(=O)c1cc(F)c2nc(C3CC3)[nH]c2c1` [Example 340], the negative logarithm of the IC50 (pIC50) was 6.00 to 7.00.

`CC(=O)C[C@@H](C(=O)N1C[C@]2(C[C@H]1C#N)C(=O)Nc1ccccc12)N(C)C(=O)c1cc2c(F)cc(F)cc2[nH]1` [Example 442]: the negative logarithm of the IC50 (pIC50) was above 7.00.

With `CC(C)C[C@@H](C(=O)N1C[C@]2(C[C@H]1C#N)C(=O)Nc1ccccc12)N(C)C(=O)c1ccc2cn[nH]c2c1` [Example 223], the pIC50 is 6.00 to 7.00.

The molecule `CC(C)C[C@@H](C(=O)N1C[C@]2(C[C@H]1C#N)C(=O)Nc1ccccc12)N(C)C(=O)c1cc(F)c2nc(C3CC3)c(C(=O)C(F)(F)F)n2c1` [Example 314] gave a pIC50 of 6.00 to 7.00.

The molecule `CC(C)(C)C[C@H](NC(=O)c1ccc2ncc(C(F)(F)F)cc2c1)C(=O)N1C[C@]2(C[C@H]1C#N)C(=O)Nc1ccccc12` [Example 134] showed a pIC50 of 6.00 to 7.00.

Turning to `CC(C)C[C@@H](C(=O)N1C[C@]2(C[C@H]1C#N)C(=O)Nc1ccccc12)N(C)C(=O)c1cccc(-c2ccc(C#N)cc2)c1` [Example 265], the pIC50 was 6.00 to 7.00.

`CC(C)(C)C[C@H](NC(=O)Nc1ccc(F)cc1F)C(=O)N1C[C@]2(C[C@H]1C#N)C(=O)Nc1ccccc12` [Example 436] showed a negative logarithm of the IC50 (pIC50) of 6.00 to 7.00.

`CN(C(=O)c1nc2cccnc2[nH]1)[C@@H](CC1CC1)C(=O)N1C[C@]2(C[C@H]1C#N)C(=O)Nc1ccc(Cl)cc12` [Example 463]: the negative-log IC50 (pIC50) was above 7.00.

`CC(C)C[C@@H](C(=O)N1C[C@]2(C[C@H]1C#N)C(=O)Nc1ccccc12)N(C)C(=O)c1ccc2cccnc2c1` [Example 218]: the negative logarithm of the IC50 (pIC50) was 6.00 to 7.00.

As to `CC(C)(C)C[C@H](NC(=O)Nc1c(F)cccc1F)C(=O)N1C[C@]2(C[C@H]1C#N)C(=O)Nc1ccccc12` [Example 437], the pIC50 is 6.00 to 7.00.

`COc1ccnc(C(=O)N(C)[C@@H](CC(C)C)C(=O)N2C[C@]3(C[C@H]2C#N)C(=O)Nc2ccccc23)c1` [Example 192]: the negative-log IC50 (pIC50) was 6.00 to 7.00.

Source of the values: patent publication US12540141B2, “Spiropyrrolidine derived antiviral agents” (priority 2020, dated 2026).
